Laboratory results reported in patent publication US20250025387A1, “COMPOSITION FOR THE TREATMENT OF THE SKIN OF DIABETES PATIENTS” (MIBELLE AG, priority 2021, published 2025).
Entries after “also recorded” stand apart in the source; their conditions may differ.

Tests used:
loricrin = test: Loricrin expression stain of 3D epidermis (immunohistochemistry); assay type: cell-based, human; settings: 1.1 mM apical, 0.3 mM CaCl2·2H2O basal, 9 days of differentiation
Protocol: (§1) The effect of the Ca^2+ phospholipid complexes on the differentiation of 3D-reconstructed epidermis was investigated. To this end, keratinocyte progenitor cells were cultivated in low-calcium growth medium (TAK-GM, 0.03 mM calcium chloride dihydrate (CaCl2·2H2O)) and were then used to reconstruct a 3D epidermis. For this purpose, the medium was replaced by a 3D differentiation medium (TAK-3D) containing 1.1 mM CaCl2·2H2O and the cells were grown in the medium for a further day. The cultures were then contacted with the air in order to induce differentiation and formation of the skin barrier, and grown for a further 9 days with changing of the medium every second day in the following way: • Condition 1: 1.1 mM CaCl2·2H2O from the basal side (TAK-3D). This is the standard condition for efficient epidermis formation. • Condition 2: 0.3 mM CaCl2·2H2O from the basal side (low calcium concentration). The calcium concentration was reduced here in order to cause impaired formation of the epidermis and thus produce an impaired skin barrier. This is the minimum necessary calcium concentration that must be present on the basal side in order to ensure formation of the epidermis. • Condition 3: 0.3 mM CaCl2·2H2O from the basal side+1.1 mM CaCl2·2H2O from the apical side. Here, calcium was additionally added to the 3D epidermis apically in the form of calcium chloride dihydrate. […]

[1] = tested on: 3D-reconstructed epidermis; test: Rebuilding of the epidermis structure in an in vitro skin model, control CaCl2 (hematoxylin-eosin stain); assay type: cell-based, human; settings: 1.1 mM apical, 0.3 mM CaCl2·2H2O basal, 9 days of differentiation; dihydrate
Protocol: as §1

involucrin = test: Involucrin expression in skin explants after topical treatment in Franz diffusion cells; assay type: cell-based; settings: gel containing 0.013% CaCl2·2H2O, topical 24 hours, 20 mg
Protocol: The effect of a topical treatment with Ca^2+ phospholipid complex on the expression of the epidermis differentiation marker involucrin was investigated in skin explants. […] Thereafter, the skin explants were washed with 3 ml of water and frozen at −80° C. The tissues were fixed in formaldehyde and embedded in paraffin. Tissue sections of 5 μm were prepared and mounted on glass slides before deparaffination. The slides were stained with hematoxylin-eosin stain to analyze tissue structure. The protein expression of involucrin was determined by immunohistochemical staining and quantified by image analysis.

For `O.O.[Ca+2].[Cl-].[Cl-]` [CaCl2·2H2O, calcium chloride dihydrate], the “expression of the epidermal differentiation marker loricrin” value (loricrin) was “reduced loricrin production”, the “formation of 3D epidermis (hematoxylin-eosin stain)” value [1] was “impairment of epidermis formation; also recorded: additionally worsened the formation of a 3D epidermis” and the “reduction of involucrin expression compared to the placebo-treated skin explant” value (involucrin) was 91.1%.
